Earlier results as cited in patent US7582301B1, “Long-lasting antiviral fusion inhibitor peptide conjugates comprising albumin and human immunodeficiency virus (HIV) peptides” (Conjuchem Biotechnologies, Inc., priority 2000, dated 2009).

tested on: HIV-1; conditions: result in words; listed as DP-107

Substance | anti-HIV-1 activity (inhibition of HIV-1 infection and fusion)
NNLLRAIEAQQHLLQLTVWQIKQLQARILAVERYLKDQ [DP107] | potent inhibitors

same assay, conditions: result in words; listed as DP-178

Substance | anti-HIV-1 activity (inhibition of HIV-1 infection and fusion)
enfuvirtide | potent inhibitors

tested on: measles virus (MeV); conditions: result in words; MeV-infected and uninfected Vero cells

Substance | inhibition of viral infection of MeV, including fusion and syncytia formation
HRIDLGPPISLERLDVGTNLGNAIAKLEAKELLE [SEQ ID NO:77] | inhibits viral infection
PISLERLDVGTNLGNAIAKLEAKELLESSDQILR [SEQ ID NO:84] | inhibits viral infection
IDLGPPISLERLDVGTNLGNAIAKLEAKELLESS [SEQ ID NO:79] | inhibits viral infection

tested on: simian immunodeficiency virus (SIV); conditions: as crude peptides; result in words

Substance | anti-SIV activity
ERKVDFLEENITALLEEAQIQQEKNMYELQKLNSW [SEQ ID NO:68] | potent antiviral activity
EWERKVDFLEENITALLEEAQIQQEKNMYELQKLN [SEQ ID NO:66] | potent antiviral activity
RKVDFLEENITALLEEAQIQQEKNMYELQKLNSWD [SEQ ID NO:69] | potent antiviral activity
QEWERKVDFLEENITALLEEAQIQQEKNMYELQKL [SEQ ID NO:65] | potent antiviral activity
FLEENITALLEEAQIQQEKNMYELQKLNSWDVFGN [SEQ ID NO:73] | potent antiviral activity
WERKVDFLEENITALLEEAQIQQEKNMYELQKLNS [SEQ ID NO:67] | potent antiviral activity
VDFLEENITALLEEAQIQQEKNMYELQKLNSWDVF [SEQ ID NO:71] | potent antiviral activity
DFLEENITALLEEAQIQQEKNMYELQKLNSWDVFG [SEQ ID NO:72] | potent antiviral activity
KVDFLEENITALLEEAQIQQEKNMYELQKLNSWDV [SEQ ID NO:70] | potent antiviral activity
WQEWERKVDFLEENITALLEEAQIQQEKNMYELQK [SEQ ID NO:64] | potent antiviral activity

tested on: HPIV-3; conditions: HPIV-3-infected Hep2 cells and uninfected CV-1W cells

Substance | concentration inhibiting fusion and syncytia formation
NSVALDPIDISIELNKAKSDLEESKEWIRRSNQKL (NNSVALDPIDISIELNKAKSDLEESKEWIRRSNQK) [SEQ ID NO:35, anti-HPIV-3 peptide, DP178-like] | less than 1 μg/ml

same assay, conditions: result in words; HPIV3-infected Hep2 cells and uninfected CV-1W cells

Substance | inhibition of viral infection of HPIV3, including fusion and syncytia formation
VEAKQARSDIEKLKEAIRDTNKAVQSVQSSIGNLI [SEQ ID NO:52] | inhibits viral infection
DPIDISIELNKAKSDLEESKEWIRRSNQKLDSIGN (LDPIDISIELNKAKSDLEESKEWIRRSNQKLDSIG) [SEQ ID NO:40, anti-HPIV-3 peptide, DP178-like] | inhibits viral infection
RSDIEKLKEAIRDTNKAVQSVQSSIGNLIVAIKSV [SEQ ID NO:58] | inhibits viral infection
IDISIELNKAKSDLEESKEWIRRSNQKLDSIGNWH (PIDISIELNKAKSDLEESKEWIRRSNQKLDSIGNW) [SEQ ID NO:42, anti-HPIV-3 peptide, DP178-like] | inhibits viral infection
NSVALDPIDISIELNKAKSDLEESKEWIRRSNQKL (NNSVALDPIDISIELNKAKSDLEESKEWIRRSNQK) [SEQ ID NO:35, anti-HPIV-3 peptide, DP178-like] | inhibits viral infection
ALDPIDISIELNKAKSDLEESKEWIRRSNQKLDSI (VALDPIDISIELNKAKSDLEESKEWIRRSNQKLDS) [SEQ ID NO:38, anti-HPIV-3 peptide, DP178-like] | inhibits viral infection
PIDISIELNKAKSDLEESKEWIRRSNQKLDSIGNW (DPIDISIELNKAKSDLEESKEWIRRSNQKLDSIGN) [SEQ ID NO:41, anti-HPIV-3 peptide, DP178-like] | inhibits viral infection
LDPIDISIELNKAKSDLEESKEWIRRSNQKLDSIG (ALDPIDISIELNKAKSDLEESKEWIRRSNQKLDSI) [SEQ ID NO:39, anti-HPIV-3 peptide, DP178-like] | inhibits viral infection

tested on: respiratory syncytial virus (RSV); conditions: RSV-infected and uninfected Hep-2 cells

Substance | concentration inhibiting fusion and syncytia formation
IALLSTNKAVVSLSNGVSVLTSKVLDLKNYIDK [SEQ ID NO:29, anti-RSV peptide from the F1 region of RSV] | less than 50 μg/ml

same assay, conditions: result in words; RSV-infected and uninfected Hep-2 cells

Substance | inhibition of viral infection of RSV, including fusion and syncytia formation
VITIELSNIKENKCNGAKVKLIKQELDKYKNAV (VITIELSNIKENKCNGDAKVKLIKQELDKYKNAV) [SEQ ID NO:16, anti-RSV peptide from the F2 region of RSV] | inhibits viral infection
TSVITIELSNIKENKCNGAKVKLIKQELDKYKN (TSVITIELSNIKENKCNGDAKVKLIKQELDKYKN) [SEQ ID NO:15, anti-RSV peptide from the F2 region of RSV] | inhibits viral infection
YTSVITIELSNIKENKCNGAKVKLIKQELDKYK (YTSVITIELSNIKENKCNGDAKVKLIKQELDKYK) [SEQ ID NO:14, anti-RSV peptide from the F2 region of RSV] | inhibits viral infection
IALLSTNKAVVSLSNGVSVLTSKVLDLKNYIDK [SEQ ID NO:29, anti-RSV peptide from the F1 region of RSV] | inhibits viral infection

tested on: not given; conditions: result in words

Substance | anti-viral activity
SEQ ID NO:8: analog peptide demonstrated to exhibit anti-viral activity; sequence not printed in the text (CGGNNLLRAIEAQQHLLQLTVWGIKQLQARILAVERYLKDQ) | exhibit anti-viral activity
